Data set [1] is described as follows: Metabolic stability and intrinsic clearance in rat hepatocytes. The data set is classed as in vitro ADME. The following applies: cryopreserved rat hepatocytes 1.0×10^6 viable cells/mL, 37° C., up to 120 minutes; read-out: Rat Hepatocytes Median t1/2. The protocol: Stock solutions (10 mM) of Compounds A, B, C, D and of control compounds were prepared in the appropriate solvent (DMSO). The L-15 Medium was placed in a 37° C. water bath, and allowed to warm for at least 15 minutes prior to use. Acetonitrile (80 μL) was added to each well of the 96-well plate (quenching plate).
In a new 96-well plate, the solutions of the above compounds and of the control compounds were diluted to 100 μM by combining 198 μL of acetonitrile and 2 μL of each stock solutions. A vial of cryopreserved rat hepatocytes was removed from storage, while ensuring that the vial remain at cryogenic temperatures until thawing process ensued. As quickly as possible, the cells were thawed by placing the vial in a 37° C. water bath and gently shaking the vial. The vial remained in the water bath until all ice crystals had dissolved and were no longer visible. After thawing was completed, the vial was sprayed with 70% ethanol, and transferred into a biosafety cabinet. The vial was opened and the content poured into a 50 mL conical tube containing L-15 Medium. The vial was washed twice. The 50 mL conical tube was placed in a centrifuge and spun at 50 g for 3 minutes (room temperature). The L-15 medium was aspirated. A small volume of buffer (˜200 μL) was added and the pellet was re-suspended. The tube was filled with buffer to a volume of 50 mL and centrifugation was repeated. Upon completion of spin, the L-15 Medium was aspirated and the hepatocytes re-suspended in enough incubation medium to yield ˜1.5×10^6 cells/mL. Using Cellometer® Vision, the cells were counted and the viable cell density was determined. Cells with poor viability (<80% viability) were not acceptable for use. Cells were diluted with incubation medium to a working cell density of 1.0×10^6 viable cells/mL. Hepatocytes (247.5 μL) were transferred into each well of a 96-well cell culture plate. The plate was placed on an Eppendorf Thermomixer Comfort plate shaker to allow the hepatocytes to warm for 10 minutes.
Solutions (2.5 μL of 100 μM) of Compounds A, B, C, D and of the control compounds were added into an incubation well containing cells and mixed to achieve a homogenous suspension at 0.5 minutes, which when achieved, defined the 0.5 minute time point. At the 0.5 minute time point, the incubated mixture (20 μL) was transferred to wells in a “Quenching plate,” followed by vortexing. […]
All calculations were carried out using Microsoft Excel. Peak areas were determined from extracted ion chromatograms. The in vitro half-life (t1/2) of the parent compound was determined by regression analysis of the Ln percent parent disappearance vs. time curve.
The in vitro intrinsic clearance (in vitro Clint, in μL/min/10^6 cells) was determined from the slope value using the following equation: […]

The nature of data set [2]: Metabolic stability and intrinsic clearance in dog hepatocytes. Type of data set: in vitro ADME. The following applies: cryopreserved dog hepatocytes 1.0×10^6 viable cells/mL, 37° C., up to 120 minutes; read-out: Dog Hepatocytes Median t1/2. How it is done: Stock solutions (10 mM) of the test compounds and control compounds were prepared in appropriate solvent (DMSO). The incubation medium (L-15 Medium) was placed in a 37° C. water bath, and warming was allowed for at least 15 minutes prior to use. 80 μL of acetonitrile was added to each well of the 96-well deep well plate (quenching plate). In a new 96-well plate, the 10 mM test compound solutions and the control compound solution were diluted to 100 μM by combining 198 μL of acetonitrile and 2 μL of 10 mM stock. A vial of cryopreserved dog hepatocytes was removed from storage, while ensuring that vials remain at cryogenic temperatures until thawing process ensued. As quickly as possible, the cells were thawed by placing the vial in a 37° C. water bath and gently shaking the vials. Vials remained in water bath until all ice crystals had dissolved and were no longer visible. After thawing was complete, vial was sprayed with 70% ethanol, and transferred to a biosafety cabinet. The vial was opened and the contents poured into the 50 mL conical tube containing thawing medium. The 50 mL conical tube was placed into a centrifuge and spun at 100 g for 10 minutes. Upon completion of spin, the thawing medium was aspirated and hepatocytes resuspended in enough incubation medium to yield ˜1.5×10^6 cells/mL. Using Cellometer® Vision, cells were counted and the viable cell density was determined. Cells with poor viability (<80% viability) were not acceptable for use. Cells were diluted with incubation medium to a working cell density of 1.0×10^6 viable cells/mL. 247.5 μL of hepatocytes were transferred into each well of a 96-well cell culture plate. The plate was placed on Eppendorf Thermomixer Comfort plate shaker to allow the hepatocytes to warm for 10 minutes. 2.5 μL of 100 μM test compound solution or control compound solution were added into an incubation well containing cells, and mixed to achieve a homogenous suspension at 0.5 minutes, which when achieved, defined the 0.5 minute time point. At the 0.5 minute time point, 20 μL of incubated mixture was transferred to wells in a “Quenching” plate followed by vortexing. The plate was incubated at 37 ° C. at 900 rpm on an Eppendorf Thermomixer Comfort plate shaker. At 5, 15, 30, 45, 60, 80, 100 minutes and 120 minutes, the incubation system was mixed and samples of 20 μL of incubated mixture were serially transferred at each time point to wells in a separate “Quenching” plate followed by vortexing. The quenching plates were centrifuged for 20 minutes at 4,000 rpm. […]
All calculations were carried out using Microsoft Excel. Peak areas were determined from extracted ion chromatograms. […]
The in vitro intrinsic clearance (in vitro Clint, in μL/min/10^6 cells) is determined from the slope value using the following equation: […]

For the compound `[2H]C1([2H])OC([2H])([2H])C([2H])([2H])N(C(=O)c2cc(-c3cc(Cl)c4c(c3)CN([C@@H](C)C3CC3)C4=O)on2)C1([2H])[2H]` [Compound A, (S)-7-chloro-2-(1-cyclopropylethyl)-5-(3-(morpholine-4-carbonyl-2,2,3,3,5,5,6,6-d8)isoxazol-5-yl)isoindolin-1-one], the results for the half-life at 1 μM in data set [1] and in data set [2] were 100 min and 40.1 min, respectively.

As for `[2H]C1([2H])CN(C(=O)c2cc(-c3cc(Cl)c4c(c3)CN([C@@H](C)C3CC3)C4=O)on2)CC([2H])([2H])O1` [Compound B, (S)-7-chloro-2-(1-cyclopropylethyl)-5-(3-(morpholine-4-carbonyl-2,2,6,6-d4)isoxazol-5-yl)isoindolin-1-one], the half-life at 1 μM in data set [1] turned out to be 36.8 min; in data set [2], 40.1 min.

For the compound `[2H]C1([2H])COCC([2H])([2H])N1C(=O)c1cc(-c2cc(Cl)c3c(c2)CN([C@@H](C)C2CC2)C3=O)on1` [Compound C, (S)-7-chloro-2-(1-cyclopropylethyl)-5-(3-(morpholine-4-carbonyl-3,3,5,5-d4)isoxazol-5-yl)isoindolin-1-one], the results for the half-life at 1 μM in data set [1] and in data set [2] were 29.1 min and 33.3 min, respectively.

In the case of `C[C@@H](C1CC1)N1Cc2cc(-c3cc(C(=O)N4CCOCC4)no3)cc(Cl)c2C1=O` [Compound D, (S)-7-chloro-2-(1-cyclopropylethyl)-5-(3-(morpholine-4-carbonyl)isoxazol-5-yl)isoindolin-1-one, reference compound], the half-life at 1 μM in data set [1] came to 37.3 min; in data set [2], 29.9 min.

The values above are taken from US20170145002A1, “DEUTERATED ISOXAZOLE DERIVATIVES AND THEIR USE AS METABOTROPIC GLUTAMATE RECEPTOR POTENTIATORS” (AstraZeneca AB, priority 2015, published 2017).
